Source: patent US6596854B2, “Isolated nucleic acid molecule encoding a variant human eukaryotic Intiation Factor 4E protein” (Emory University, priority 1996, dated 2003)
Entries after “also recorded” stand apart in the source; their conditions may differ.

Experiments:
eIF-4E = biological target: T1, eIF-4E (Homo sapiens, UniProt P06730); experiment: Photoaffinity labeling of eIF-4E with labeled GTP analog; format: binding; conditions: competition and saturation
T1 construct: made in house; host or cells: E. coli BL21(DE3), pET-3d
Source text: Studies on the binding site of eIF-4E have defined a sequence of amino acids, involved in binding m^7G-RNA extending approximately from positions 112-123, numbering from the translation start site. The region of amino acids involved in the binding of eIF-4E to m^7G-RNA was identified using photoaffinity labeling with a labeled analog, [γ-^32P] 8-N3GTP. [Jayaram, B. et al. (1994) J. Biol. Chem. 269:3233-3242; Shoemaker, M. T. et al. (1993) J. Biol. Chem. 32:1883-1890; Salvucci, M. E. et al. (1992) Biochemistry 31:4479-4487]. […] The analog binding to eIF-4E was rendered irreversible by a photo-chemical reaction and a tryptic peptide bearing the analog label was isolated by aluminum-III chelate chromatography and reverse phase HPLC. Once the binding region peptide was identified, it was then possible to employ alanine-scanning mutations to determine the contribution of specific amino acid residues to the binding, and to generate modified eIF-4E proteins with altered binding affinities. Modified eIF-4E analog proteins having either increased or decreased binding affinities have been made. […] Enhanced binding affinity can lead to increased capped RNA stability and increased duration of expression. Decreased binding affinity can be of value where sensitivity to regulatory influences is desired. […]

[1] = test system: translation of globin mRNA; experiment: Cell-free translation in eIF-4E-depleted rabbit reticulocyte lysates; format: biochemical
Method: Translational activity of eIF-4E variants: The ability of eIF-4E variants to initiate translation was examined in rabbit reticulocyte lysates which were depleted of endogenous eIF-4E by m^7GTP-Sepharose chromatography [Svitkin Y. V. et al. (1996) EMBO J. 15:7147-7155]. Western blotting analysis using anti-eIF-4E antibodies detected no eIF-4E in lysates after chromatography. […] The relative abilities of eIF-4E variants to restore globin mRNA translation were tested for all variants except W113A.
Cell-free translations: Nuclease-treated rabbit reticulocyte lysates (Promega) were depleted of endogenous eIF-4E by chromatography on m^7GTP-Sepharose according to the previously described protocol (Svitkin et al. 1996, supra). Aliquots of eIF-4E-depleted lysates were stored in liquid nitrogen vapor. eIF-4E depletion was verified by Western blotting analysis (data not shown). Cell-free translations were performed at 30° C. as described in detail in the Promega technical manual. […] In the case of L117A, which was not highly purified, a sufficient quantity of the preparation was added to approximate 75 ng of L117A. […] Dried filter papers were placed in vials with scintillation liquid and [^35S]methionine incorporated into protein was quantitated by liquid scintillation spectrometry.

[2] = biological target: m^7GTP (mRNA cap structure); experiment: Fluorescence quenching of intrinsic tryptophan of eIF-4E upon m^7GTP binding
Method: FIGS. 4A and 4B. […] The fluorescence intensity of recombinant human eIF-4E binding to m^7GTP as a function of m^7GTP concentration was measured. All solutions were prepared in buffer A at pH 7.6, 25° C. and the concentration of eIF-4E was 1 μM. An excitation wave length of 280 nm was used to monitor the fluorescence intensity at 330 nm.
Fluorescence measurements were made at 25° C. on a SPEX Fluorolog-T2 spectrofluorometer equipped with a high intensity (450 w) xenon arc lamp. An excitation wave length of 280 nm was used to monitor the tryptophan fluorescence emission of recombinant eIF-4E at 330 nm. Excitation and emission slit widths of 1.4 and 2.0 mm respectively were used and a 1.0 cm sample cell pathlength was employed. The buffer used for all fluorescence measurements was 20 mM HEPES at pH 7.6 and 1 mM DTT (designated Buffer A in FIG. 4). The steady state data were collected and analyzed as described previously [Carberry, S. E. et al. (1989) Biochemistry 28:8078-8083; Carberry, S. E. et al. (1990) Biochemistry 29:3337-3341. An excitation wavelength of 289 nm was used to monitor the tryptophan fluorescence emission of the proteins. Excitation and emission slit widths of 1.5 mm and 2.0 mm respectively were used and cell path length was 1.0 cm.
The preparation of large quantities of recombinant eIF-4E variants allowed us to directly determine the Kd of binding to the mRNA cap structure. Quantitation was performed by measuring the fluorescence quenching of intrinsic tryptophan residues in eIF-4E upon m^7GTP binding at 25≅ C. (Example 3). […] This is possibly a consequence of a lower stability of these variants at the higher temperature in the fluorescence quenching assay.

[3] = format: physicochemical, E. coli
Method: Purification was carried out essentially as described by Hagedorn, et al. (1997) Protein Expression and Purif. 9:53-60, which is incorporated herein by reference. BL21(DE3) cells expressing human eIF-4E were grown in M9ZB media with ampicillin to an OD600 of 0.6-0.7 at which time cultures were induced with 0.4 mM IPTG [Studier, F. W. et al. (1990) supra]. […] Culture media was centrifuged at 500×g for 15 min, and E. coli pellets were suspended in 3 ml of 50 mM Tris-HCl pH 8.0, 100 mM KCl, 1 mM EDTA, 1 mM DTT, 1 mM PMSF, and 0.1 mg/ml lysozyme per gram wet weight. Samples were stirred intermittently on ice for 15 min and sonicated. Triton X-100 was added to a final concentration of 0.1%. The samples were mixed for 15 min at 4° C. and centrifuged at 15,000 rpm in a Sorvall SS-34 rotor for 20 min. Supernatants were used as starting material for subsequent chromatography purification steps.
In order to assess the solubility of each variant, cells were lysed and centrifuged as described supra. Supernatants prepared from equivalent wet weights of cells were analyzed by SDS-PAGE and Western blotting with anti-eIF-4E antibodies. Supernatants from all variants contained soluble eIF-4E. […] Except for the W113A and L117A variants, no major differences in solubility were observed among the other alanine variants studied.

T1 sequence (P06730 whole entry): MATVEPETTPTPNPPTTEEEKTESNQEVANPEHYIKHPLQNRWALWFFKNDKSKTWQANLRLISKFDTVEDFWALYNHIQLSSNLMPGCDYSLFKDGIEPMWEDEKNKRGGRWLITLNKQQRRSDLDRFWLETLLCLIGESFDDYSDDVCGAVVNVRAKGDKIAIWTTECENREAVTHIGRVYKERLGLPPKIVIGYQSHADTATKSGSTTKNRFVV

[N-]=[N+]=Nc1nc2c(=O)[nH]c(N)nc2n1C1OC(COP(=O)(O)OP(=O)(O)O[32P](=O)(O)O)C(O)C1O (centres unmarked) [[γ-^32P] 8-N3GTP]
binding of analog to eIF-4E (eIF-4E): bind to eIF-4E in competition with m^7GTP and with capped RNA; also recorded: the binding site was saturated by the analog

Cn1c[n+]([C@@H]2O[C@H](COP(=O)(O)OP(=O)([O-])O)[C@@H](O)[C@H]2O)c2nc(N)[nH]c(=O)c21 [m^7GDP, reference compound]
effect on eIF-4E-dependent translation ([1]; added to incubation containing wild-type eIF-4E): inhibited the eIF-4E-dependent translation

wild-type eIF-4E: purified recombinant human eukaryotic Initiation Factor 4E expressed in E. coli, non-phosphorylated
Kd ([2]; Kd for m^7GTP, fluorescence quenching, 25 C, read-out: Binding constant Kd): 140 nM
equilibrium binding constant ([2]; binding to m^7GTP, pH 7.6 (20 mM HEPES buffer+1 mM DTT), 25° C.): 10.1±0.3 ×10^5M^−1
equilibrium binding constant relative to results obtained using native human eIF-4E ([2]; compared with Carberry 1989): 1.5-2 times higher
binding constant ([2]; in vitro, worded as binding to m^7G-RNA): 10.1±0.3 ×10^5M^−1
increase in the translation of globin mRNA ([1]; addition to eIF-4E-depleted lysate): 2-4 fold
fraction of eIF-4E expressed in E. coli that was soluble [3]: Note: Approximately 1-5% of the eIF-4E expressed in E. coli was soluble as estimated by Coomassie blue staining of SDS-PAGE analyzed samples.
